This passage reports IC50 and solubility results from patent publication US20220380319A1 (Bial - R&D Investments, S.A., priority 2019, published 2022).

Converted amounts (≈) assume the structure as drawn.

For one series, the target named is T1, acid ceramidase (Homo sapiens, UniProt Q13510).
T1 construct: Cell lysates overexpressing acid ceramidase were used as the enzyme source; expressed in transfected cells
T1 sequence (Q13510 22-395): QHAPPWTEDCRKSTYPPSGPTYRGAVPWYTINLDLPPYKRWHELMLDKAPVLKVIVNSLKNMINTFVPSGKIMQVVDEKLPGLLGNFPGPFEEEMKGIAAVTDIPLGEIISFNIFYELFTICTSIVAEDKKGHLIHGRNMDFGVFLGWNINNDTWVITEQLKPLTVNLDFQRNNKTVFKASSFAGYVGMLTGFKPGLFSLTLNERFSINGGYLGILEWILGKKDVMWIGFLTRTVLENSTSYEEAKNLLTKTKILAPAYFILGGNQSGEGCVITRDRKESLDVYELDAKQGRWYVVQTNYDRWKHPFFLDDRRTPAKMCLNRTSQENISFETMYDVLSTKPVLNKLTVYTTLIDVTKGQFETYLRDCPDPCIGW
As to the kind of experiment: Acid ceramidase inhibition, biochemical fluorescent assay with cell lysates overexpressing acid ceramidase, substrate Rbm14-12. The note with it: substrate Rbm14-12 6.3 μM, pH 4.5, 1 hr preincubation at RT. The method, then: The ability of exemplary compounds to inhibit acid ceramidase was measured.
Cell lysates overexpressing acid ceramidase were used as the enzyme source for compound potency determination in a biochemical fluorescent assay. Briefly, compounds were preincubated with 10 μg protein of cell lysates in a dose-response manner for 1 hr at RT in the assay buffer containing 25 mM NaAC and 100 mM NaCl, pH 4.5. The reaction was initiated by the addition of substrate Rbm14-12 at a final concentration of 6.3 μM. The reaction was run at RT for 1 hr before it was stopped by the addition of the stopping buffer containing 20% methanol (v/v), 1 mg/ml NaIO4, 0.1 M glycine, pH 10.6. The samples were incubated with the stopping buffer at RT for 1 hr to allow the fluorescent product to be formed. Finally, the plate was read with SpectraMax i3 plate reader (Molecular Devices) at ex360 nm and em446 nm. Data were collected and used to determine the IC50 values of compounds by curve fitting to the four-parameter inhibition equation.

Series [1] is described as follows: Compound solubility in water.

Usually IC50 stands for the concentration that gives 50% inhibition. Read a high IC50 as lower potency. What is called solubility is the concentration that dissolves in the medium under given conditions. A higher solubility goes with a readily soluble substance. Take `Cn1c(=O)n(C(=O)NCCc2ccccc2)c2ccc(-c3cncnc3)cc21` [Example 32b, 3-methyl-2-oxo-N-phenethyl-5-(pyrimidin-5-yl)-2,3-dihydro-1H-benzo[d]imidazole-1-carboxamide]: the 50% inhibitory concentration (IC50) against acid ceramidase is greater than 1000 nM. Further, the solubility in series [1] was 0.3 µg/mL (≈ 0.803 µM).
The corresponding values for `COc1nc2c(C3CCN(C)CC3)cccc2n1C(=O)NCCc1ccccc1` [Example 33, 2-Methoxy-4-(1-methylpiperidin-4-yl)-N-phenethyl-1H-benzo[d]imidazole-1-carboxamide] are 200 to 1000 nM and 27 µg/mL (≈ 68.8 µM).
The corresponding values for `O=C(NCCc1ccccc1)n1c(OC2CC2)nc2ccccc21` [Example 34, 2-Cyclopropoxy-N-phenethyl-1H-benzo[d]imidazole-1-carboxamide] are less than 200 nM and 0.5 µg/mL (≈ 1.56 µM).
The corresponding values for `CC(C)Oc1nc2ccccc2n1C(=O)NCCc1ccccc1` [Example 35, 2-iso-Propoxy-N-phenethyl-1H-benzo[d]imidazole-1-carboxamide] are less than 200 nM and 0.7 µg/mL (≈ 2.16 µM).
For the compound `CCOc1nc2ccccc2n1C(=O)NCCc1ccccc1` [Example 36, 2-Ethoxy-N-phenethyl-1H-benzo[d]imidazole-1-carboxamide], the 50% inhibitory concentration (IC50) against acid ceramidase is less than 200 nM. In series [1], the solubility was 8.4 µg/mL (≈ 27.2 µM).
The corresponding values for `O=C(NCCc1ccccc1)n1c(Oc2ccccc2)nc2ccccc21` [Example 37, N-Phenethyl-2-phenoxy-1H-benzo[d]imidazole-1-carboxamide] are less than 200 nM and 0.2 µg/mL (≈ 0.56 µM).
The corresponding values for `COc1cc2ncn(C(=O)NCCc3ccccc3)c2cc1N1CCOCC1` [Example 38a, 5-Methoxy-6-morpholino-N-phenethyl-1H-benzo[d]imidazole-1-carboxamide] are less than 200 nM and 20.4 µg/mL (≈ 53.6 µM).
The corresponding values for `COc1cc2c(cc1N1CCOCC1)ncn2C(=O)NCCc1ccccc1` [Example 38b, 6-methoxy-5-morpholino-N-phenethyl-1H-benzo[d]imidazole-1-carboxamide] are less than 200 nM and 18.3 µg/mL (≈ 48.1 µM).
In the case of `COc1cc(N2CCOCC2)cc2c1ncn2C(=O)NCCc1ccccc1` [Example 39, 4-Methoxy-6-morpholino-N-phenethyl-1H-benzo[d]imidazole-1-carboxamide], the IC50 against acid ceramidase was less than 200 nM. Also, the solubility in series [1] was determined as 16.3 µg/mL (≈ 42.8 µM).
The corresponding values for `COc1c(N2CCOCC2)ccc2c1ncn2C(=O)NCCc1ccccc1` [Example 40, 4-Methoxy-5-morpholino-N-phenethyl-1H-benzo[d]imidazole-1-carboxamide] are less than 200 nM and 10.5 µg/mL (≈ 27.6 µM).
The corresponding values for `O=C(NCCN1CCOCC1)n1cnc2ccccc21` [Example 41, N-(2-Morpholinoethyl)-1H-benzo[d]imidazole-1-carboxamide] are greater than 1000 nM and 32 µg/mL (≈ 117 µM).
`O=C(NCCOCc1ccccc1)n1cnc2ccccc21` [Example 42, N-(2-(Benzyloxy)ethyl)-1H-benzo[d]imidazole-1-carboxamide] came in with an IC50 on acid ceramidase of less than 200 nM. This compound also registered a solubility in series [1] of 17.7 µg/mL (≈ 59.9 µM).
The compound `O=C(NCCCOc1ccccc1)n1cnc2ccccc21` [Example 43, N-(3-Phenoxypropyl)-1H-benzo[d]imidazole-1-carboxamide] gave an IC50 against acid ceramidase of less than 200 nM. Besides, in series [1], the solubility was found to be 3.5 µg/mL (≈ 11.9 µM).
On to `CN1CCC(c2cccc3c2ncn3C(=O)NCCCc2ccccc2)CC1` [Example 44, 4-(1-Methylpiperidin-4-yl)-N-(3-phenylpropyl)-1H-benzo[d]imidazole-1-carboxamide], for which the IC50 against acid ceramidase was less than 200 nM. In series [1], this compound came in with a solubility of 23.2 µg/mL (≈ 61.6 µM).
The corresponding values for `CN1CCC(c2cccc3c2ncn3C(=O)NCCOc2ccccc2)CC1` [Example 45, 4-(1-Methylpiperidin-4-yl)-N-(2-phenoxyethyl)-1H-benzo[d]imidazole-1-carboxamide] are less than 200 nM and 23.5 µg/mL (≈ 62.1 µM).
